According to ChEMBL document CHEMBL4406823 (Eur J Med Chem, 2019):
Active and inactive are the calls of the source. The rule behind the calls is not given here.

Key:
[1] = Cytotoxicity against human astrocytes assessed as reduction in cell viability incubated for 72 hrs by MTT assay; assay type: cell-based, Astrocyte
CCRF-CEM = assay: Antiproliferative activity against human CEM cells assessed as inhibition of cell growth incubated for 72 hrs by MTT assay; assay type: functional
[2] = Antiproliferative activity against human CEM/VBL100 cells overexpressing P-gp assessed as inhibition of cell growth incubated for 72 hrs by MTT assay; assay type: functional; settings: CEM/VBL100, 72 h
MDA-MB-231 [3] = assay: Antiproliferative activity against human MDA-MB-231 cells assessed as inhibition of cell proliferation incubated for 72 hrs by MTT assay; assay type: functional, cell-based; settings: MDA-MB-231, 72 h
HL-60 = assay: Antiproliferative activity against human HL60 cells assessed as inhibition of cell proliferation incubated for 72 hrs by MTT assay; assay type: functional, cell-based; settings: HL-60, 72 h
SEM cells = assay: Antiproliferative activity against human SEM cells assessed as inhibition of cell proliferation incubated for 72 hrs by MTT assay; assay type: functional, cell-based
[4] = Cytotoxicity against human quiescent PBL assessed as reduction in cell viability incubated for 72 hrs by MTT assay; assay type: cell-based
[5] = Cytotoxicity against PHA-stimulated human PBL assessed as reduction in cell viability incubated for 72 hrs by MTT assay; assay type: cell-based
Tubulin = Tubulin (Bos taurus, UniProt Q6B856+Q862L2+Q862F3); assay: Inhibition of bovine brain tubulin assembly using GTP as substrate incubated for 20 mins by spectrophotometric method
Tubulin (Bos taurus) [6] = molecular target: T1, Tubulin (Bos taurus) (UniProt Q6B856+Q862L2+Q862F3); assay: Displacement of [3H]-colchicine from bovine brain tubulin at 5 uM incubated for 1 hr by relative to control
Tubulin (Bos taurus) [7] = molecular target: T1, Tubulin (Bos taurus); assay: Displacement of [3H]-colchicine from bovine brain tubulin at 0.5 uM incubated for 1 hr by relative to control
MDA-MB-231 [8] = assay: Induction of cell cycle arrest in human MDA-MB-231 cells assessed as increase in accumulation of cells at G2/M phase at 10 nM incubated for 24 hrs by PI staining based flow cytometric analysis relative to control; assay type: functional
MDA-MB-231 [9] = assay: Induction of cell cycle arrest in human MDA-MB-231 cells assessed as reduction in accumulation of cells at G1 phase at 10 to 100 nM incubated for 24 hrs by PI staining based flow cytometric analysis; assay type: functional
MDA-MB-231 [10] = assay: Induction of cell cycle arrest in human MDA-MB-231 cells assessed as reduction in accumulation of cells at S phase at 10 to 100 nM incubated for 24 hrs by PI staining based flow cytometric analysis; assay type: functional
MDA-MB-231 [11] = assay: Induction of cell cycle arrest in human MDA-MB-231 cells assessed as increase in p21 protein expression level at 50 to 100 nM incubated for 24 to 48 hrs by western blot analysis; assay type: functional, cell-based
MDA-MB-231 [12] = assay: Induction of cell cycle arrest in human MDA-MB-231 cells assessed as reduction in cdc25c protein expression at 50 nM incubated for 24 to 48 hrs by western blot analysis; assay type: functional, cell-based
MDA-MB-231 [13] = assay: Induction of cell cycle arrest in human MDA-MB-231 cells assessed as effect on cyclin B protein expression at 50 to 100 nM incubated for 24 to 48 hrs by western blot analysis; assay type: functional, cell-based
MDA-MB-231 [14] = assay: Induction of apoptosis in human MDA-MB-231 cells at 50 nM incubated for 24 to 48 hrs by annexin V-FITC/propidium iodide staining-based flow cytometry analysis; assay type: functional, cell-based
MDA-MB-231 [15] = assay: Induction of mitochondrial membrane depolarization in human MDA-MB-231 cells at 50 to 100 nM incubated for 24 to 48 hrs by JC1 staining based flow cytometric method; assay type: functional, cell-based
MDA-MB-231 [16] = assay: Induction of ROS generation in human MDA-MB-231 cells at 50 to 100 nM incubated for 24 to 48 hrs by H2-DCFDA staining based flow cytometric method; assay type: functional, cell-based
MDA-MB-231 [17] = assay: Induction of apoptosis in human MDA-MB-231 cells assessed as activation of PARP cleavage at 50 to 100 nM incubated for 48 hrs by Western blot analysis; assay type: functional, cell-based
MDA-MB-231 [18] = assay: Induction of apoptosis in human MDA-MB-231 cells assessed as reduction in Mcl1 protein expression at 50 nM incubated for 24 hrs by Western blot analysis; assay type: functional, cell-based
MDA-MB-231 [19] = assay: Induction of apoptosis in human MDA-MB-231 cells assessed as reduction in XIAP protein expression at 50 to 100 nM incubated for 24 to 48 hrs by Western blot analysis; assay type: functional, cell-based
MDA-MB-231 [20] = assay: Inhibition of cell migration in human MDA-MB-231 cells at 5 nM incubated for 24 to 48 hrs by wound healing assay; assay type: functional, cell-based
E0771 [21] = assay: Antitumour activity against mouse E0771 cells allografted in ip dosed C57BL/6 mouse assessed as reduction in tumor burden administrated every other day by caliper method; assay type: functional, organism-based
E0771 [22] = assay: Antitumour activity against mouse E0771 cells allografted in C57BL/6 mouse assessed as reduction in tumor burden at 5.0 mg/kg, ip administrated every other day by caliper method; assay type: functional, organism-based
E0771 [23] = assay: Antitumour activity against mouse E0771 cells allografted in C57BL/6 mouse assessed as reduction in tumor mass at 5.0 to 15 mg/kg, ip administrated for every other day by caliper method; assay type: functional, organism-based
[24] = Toxicity in C57BL/6 mouse allografted with mouse E0771 cells assessed as change in body weight at 15 mg/kg, ip administered every other day; assay type: organism-based; settings: in vivo
HeLa = assay: cells; settings: Homo sapiens, 72 h
Description: Antiproliferative activity against human HeLa cells assessed as inhibition of cell proliferation incubated for 72 hrs by MTT assay

HT-29 = assay: cells; settings: Homo sapiens, HT-29, 72 h
Description: Antiproliferative activity against human HT-29 cells assessed as inhibition of cell proliferation incubated for 72 hrs by MTT assay

MCF7 = assay: cells; settings: Homo sapiens, MCF7, 72 h
Description: Antiproliferative activity against human MCF7 cells assessed as inhibition of cell proliferation incubated for 72 hrs by MTT assay

MDA-MB-231 [25] = assay: Induction of cell cycle arrest in human MDA-MB-231 cells assessed as reduction in cdc2 dephosphorylation level at 50 to 100 nM incubated for 24 to 48 hrs by western blot analysis
MDA-MB-231 [26] = assay: Induction of cell cycle arrest in human MDA-MB-231 cells assessed as increase in accumulation of cells at G2/M phase at 100 nM incubated for 24 hrs by PI staining based flow cytometric analysis; assay type: functional
MDA-MB-231 [27] = assay: Induction of apoptosis in human MDA-MB-231 cells assessed as reduction in Mcl1 protein expression at 50 to 100 nM incubated for 48 hrs by Western blot analysis; assay type: functional, cell-based
E0771 [28] = assay: Antitumour activity against mouse E0771 cells allografted in C57BL/6 mouse assessed as reduction in tumor mass at 30 mg/kg, ip administrated every other day by caliper method; assay type: functional, organism-based

With `CCOc1ccc(-c2n[nH]cc2-c2cc(OC)c(OC)c(OC)c2)cc1` the GI50 at 72 h [1] was greater than 10000 nM, the GI50 (CCRF-CEM) was 0.35 nM and the GI50 [2] was 0.52 nM. It also gave an IC50 (MDA-MB-231 [3]) of 0.7 nM, an IC50 (HL-60) of 0.25 nM and an IC50 (SEM cells) of 0.06 nM. It also gave a GI50 at 72 h [4] greater than 10000 nM, a GI50 at 72 h [5] greater than 10000 nM and an IC50 (Tubulin) of 350 nM. It also gave an inhibition (Tubulin (Bos taurus) [6]) of 96%, an inhibition (Tubulin (Bos taurus) [7]) of 90% and an Activity (MDA-MB-231 [8]) of 60%. The Activity (MDA-MB-231 [9]) was “Active”, the Activity (MDA-MB-231 [10]) was “Active” and the Activity (MDA-MB-231 [11]) was “Active”. The Activity (MDA-MB-231 [12]) was “Active”, the Activity (MDA-MB-231 [13]) was “inactive” and the Activity (MDA-MB-231 [14]) was “Active”. The Activity (MDA-MB-231 [15]) was “Active”, the Activity (MDA-MB-231 [16]) was “Active” and the Activity (MDA-MB-231 [17]) was “Active”. For the same compound, the Activity (MDA-MB-231 [18]) was “Active”, the Activity (MDA-MB-231 [19]) was “Active” and the inhibition (MDA-MB-231 [20]) was “Active”. For the same compound, the inhibition (E0771 [21]) was “Dose-dependent effect”, the inhibition (E0771 [22]) was “Active” and the inhibition (E0771 [23]) was “Active”. For the same compound, the Activity [24] was “Non-Toxic”, the IC50 (HeLa) was 0.07 nM and the IC50 (HT-29) was 0.06 nM. The IC50 (MCF7) was 0.21 nM and the Activity (MDA-MB-231 [25]) was “Active”.
For `CCOc1ccc(-c2c[nH]nc2-c2cc(OC)c(OC)c(OC)c2)cc1`, the GI50 at 72 h [1] was greater than 10000 nM, the GI50 (CCRF-CEM) was 0.4 nM and the GI50 [2] was 1.9 nM. It also gave an IC50 (MDA-MB-231 [3]) of 4.5 nM, an IC50 (HL-60) of 3.2 nM and an IC50 (SEM cells) of 0.2 nM. For the same compound, the GI50 at 72 h [4] was 8700 nM, the GI50 at 72 h [5] was greater than 10000 nM and the IC50 (Tubulin) was 360 nM. The inhibition (Tubulin (Bos taurus) [6]) was 95%, the inhibition (Tubulin (Bos taurus) [7]) was 69% and the Activity (MDA-MB-231 [26]) was “Active”. For the same compound, the Activity (MDA-MB-231 [9]) was “Active”, the Activity (MDA-MB-231 [10]) was “Active” and the Activity (MDA-MB-231 [11]) was “Active”. The Activity (MDA-MB-231 [13]) was “inactive”, the Activity (MDA-MB-231 [14]) was “Active” and the Activity (MDA-MB-231 [15]) was “Active”. For the same compound, the Activity (MDA-MB-231 [16]) was “Active”, the Activity (MDA-MB-231 [17]) was “Active” and the Activity (MDA-MB-231 [27]) was “Active”. For the same compound, the Activity (MDA-MB-231 [19]) was “Active”, the IC50 (HeLa) was 0.05 nM and the IC50 (HT-29) was 0.3 nM. The IC50 (MCF7) was 1.5 nM.
With `COc1ccc(/C=C\c2cc(OC)c(OC)c(OC)c2)cc1OP(=O)(O)O` the inhibition (E0771 [28]) was “Active”.
